Laboratory results reported in paper PMC9917862 (International Journal of Molecular Sciences, 2023).
“Also recorded” adds a separate entry of the source. Where two headings read alike, the source gives them in different places.

Assays:
plasma protein = conditions: cited from earlier work
[1] = Proton dissociation constants by UV-vis titration; assay type: physicochemical
Experimental: An Agilent Carry 8454 diode array spectrophotometer was used to obtain UV-vis spectra in the interval 190–1100 nm, the path length (l) was 1 cm. The spectrophotometric titrations were performed with samples containing 25–200 μM compound over the pH range 2.0–11.5 at an ionic strength of 0.10 M (KCl) and at 25 °C. Proton dissociation constants together with the individual molar absorbance spectra were calculated with the computer program PSEQUAD [52]. The program requires the following input data: measured spectra together with the corresponding pH and analytical (total) concentration of the compounds; species matrix, with approximate protonation constant(s) and the absorbing species need to be defined. The Newton–Raphson iterative method was used to obtain protonation constant(s) with standard deviations and molar spectra of the individual species.

HSA site I = target: T1, HSA site I (Homo sapiens, UniProt P02768); test: Warfarin (WF) site marker displacement from HSA; assay type: binding; conditions: HSA-WF 1:1; pH 7.4 (PBS); 25 °C
T1 construct: purchased Sigma–Aldrich A8763

[2] = Proton dissociation constants by pH-potentiometry; assay type: physicochemical
Experimental: pH-potentiometric titrations of the antiviral agents were carried out similarly to our former works.

[3] = target: T2, α1-acid glycoprotein (AGP) (Homo sapiens, UniProt P02763); test: Steady-state fluorometry, quenching of AGP fluorescence; assay type: binding; conditions: for quenching of the fluorescence of AGP: pH 7.4 (PBS), 25 °C
T2 construct: purchased Sigma–Aldrich G9885

[4] = tested on: human blood serum (HMM fraction); conditions: pH 7.4
physchem [5] = conditions: pH 2, logD2.0
physchem [6] = test: physchem
[7] = tested on: α1-acid glycoprotein (AGP); conditions: human
physchem [8] = test: physchem; remark: listed apart in the source
HSA + AGP = conditions: human, 200 μM, pH 7.4
[9] = target: T2, α1-acid glycoprotein (AGP); test: Frontal analysis capillary electrophoresis (FACE) with AGP; assay type: binding; conditions: pH 7.4 (PBS); 25 °C
human serum proteins = conditions: cited from earlier work
[10] = target: T2, α1-acid glycoprotein (AGP); test: Dipyridamole (DIP) displacement from AGP, fluorescence anisotropy; assay type: binding; conditions: cAGP = 2.0 μM; cDIP = 1.0 μM; pH 7.4 (PBS); 25 °C
[11] = Calculated distribution of species in different protonation states; assay type: physicochemical
[12] = target: T3, human serum albumin (HSA), site I (Trp-214) (Homo sapiens, UniProt P02768); test: Steady-state fluorometry, quenching of HSA Trp-214 fluorescence; assay type: binding; conditions: pH 7.4 (PBS), 25 °C
T3 construct: purchased Sigma–Aldrich A8763

[13] = Aqueous stability of FAVI and IMA followed by UV-vis spectra; assay type: physicochemical; conditions: pH 2 and 7.4; 25 °C
[14] = target: T4, human serum albumin (HSA) (Homo sapiens, UniProt P02768); test: Ultrafiltration-UV-vis with HSA; assay type: in vitro ADME; conditions: for protein bound fraction: pH 7.4 (PBS), 25 °C
T4 construct: purchased Sigma–Aldrich A8763

physchem [15] = conditions: pH 2, thermodynamic from solid
[16] = target: T4, human serum albumin (HSA); test: Frontal analysis capillary electrophoresis (FACE) with HSA; assay type: binding
AGP (native) = conditions: cited from earlier work
AGP [17] = conditions: cited from earlier work
HSA (fatty acid free) = conditions: pH 7; cited from earlier work
HSA site II = target: T5, HSA site II (Homo sapiens, UniProt P02768); test: Dansylglycine (DG) site marker displacement from HSA; assay type: binding
T5 construct: purchased Sigma–Aldrich A8763

AGP (F1-S) = conditions: pH 7.4 (ringer), 37 °C, circular dichroism; cited from earlier work
AGP [18] = conditions: pH 4.95 (acetate), 25 °C, NMR spin-lattice relaxation times; cited from earlier work
AGP [19] = conditions: pH 4.95 (acetate), 25 °C, ITC; cited from earlier work
[20] = cited from earlier work
[21] = Aqueous stability of MOLNU followed by 1H NMR; assay type: physicochemical; conditions: 25 °C; for hydrolyzed products: in 5 days
Experimental: Molnupiravir, one of the title compounds, contains an ester functional group that may hydrolyze under certain conditions. Therefore, the aqueous stability of MOLNU was investigated as a first step at pH 2.0, 7.4, and 12.0 by ^1H NMR spectroscopy.
^1H NMR spectroscopic measurements were carried out on a Bruker Avance III HD instrument (Billerica, MA, USA). The spectra were recorded with WATERGATE water suppression pulse sequence using DSS internal standard and 10% (v/v) D2O. Aqueous stability of MOLNU was followed at pH 2.0, 7.4 and 12.0.

human transferrin = target: T6, human transferrin (Homo sapiens, UniProt P02787); test: Hydrolysis of MOLNU in the presence of transferrin, 1H NMR; assay type: in vitro ADME; conditions: 45 μM human transferrin; same behavior = no hydrolysis as with HSA
T6 construct: purchased Sigma–Aldrich T3309

HSA = target: T7, HSA (Homo sapiens, UniProt P02768); test: Hydrolysis of MOLNU in the presence of HSA, 1H NMR; assay type: in vitro ADME; conditions: HSA 630 μM; 1 mM MOLNU; PBS
T7 construct: purchased Sigma–Aldrich A8763

[22] = pH 7.4, calculated from pKa values
[23] = pH 2.0, calculated from pKa values
[24] = pH 7.4, using pKa4 = 7.7 determined by Szakács et al. [48]

T2 sequence (P02763 19-201): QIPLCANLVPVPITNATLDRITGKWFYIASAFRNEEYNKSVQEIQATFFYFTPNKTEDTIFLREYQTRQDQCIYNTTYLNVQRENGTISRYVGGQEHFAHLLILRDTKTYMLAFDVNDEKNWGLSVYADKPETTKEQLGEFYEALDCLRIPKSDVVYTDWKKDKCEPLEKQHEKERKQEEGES
T4 sequence (P02768 25-609): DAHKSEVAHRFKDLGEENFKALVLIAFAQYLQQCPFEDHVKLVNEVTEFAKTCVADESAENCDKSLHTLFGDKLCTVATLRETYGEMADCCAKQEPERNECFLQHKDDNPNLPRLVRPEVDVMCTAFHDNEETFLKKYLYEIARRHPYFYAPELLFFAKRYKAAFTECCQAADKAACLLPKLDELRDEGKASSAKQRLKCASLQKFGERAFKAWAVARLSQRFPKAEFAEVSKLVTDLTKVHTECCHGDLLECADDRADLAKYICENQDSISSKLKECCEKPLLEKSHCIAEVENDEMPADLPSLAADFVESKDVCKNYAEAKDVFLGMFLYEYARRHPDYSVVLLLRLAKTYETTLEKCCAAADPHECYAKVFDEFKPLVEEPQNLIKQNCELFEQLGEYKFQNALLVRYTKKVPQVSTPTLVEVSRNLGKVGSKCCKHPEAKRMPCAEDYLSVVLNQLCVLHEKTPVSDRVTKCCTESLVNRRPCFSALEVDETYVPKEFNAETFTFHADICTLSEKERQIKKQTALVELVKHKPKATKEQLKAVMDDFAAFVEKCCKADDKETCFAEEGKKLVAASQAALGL
T3 sequence (P02768 25-609): as above
T7 sequence (P02768 25-609): as above
T1 sequence (P02768 25-609): as above
T5 sequence (P02768 25-609): as above
T6 sequence (P02787 20-698): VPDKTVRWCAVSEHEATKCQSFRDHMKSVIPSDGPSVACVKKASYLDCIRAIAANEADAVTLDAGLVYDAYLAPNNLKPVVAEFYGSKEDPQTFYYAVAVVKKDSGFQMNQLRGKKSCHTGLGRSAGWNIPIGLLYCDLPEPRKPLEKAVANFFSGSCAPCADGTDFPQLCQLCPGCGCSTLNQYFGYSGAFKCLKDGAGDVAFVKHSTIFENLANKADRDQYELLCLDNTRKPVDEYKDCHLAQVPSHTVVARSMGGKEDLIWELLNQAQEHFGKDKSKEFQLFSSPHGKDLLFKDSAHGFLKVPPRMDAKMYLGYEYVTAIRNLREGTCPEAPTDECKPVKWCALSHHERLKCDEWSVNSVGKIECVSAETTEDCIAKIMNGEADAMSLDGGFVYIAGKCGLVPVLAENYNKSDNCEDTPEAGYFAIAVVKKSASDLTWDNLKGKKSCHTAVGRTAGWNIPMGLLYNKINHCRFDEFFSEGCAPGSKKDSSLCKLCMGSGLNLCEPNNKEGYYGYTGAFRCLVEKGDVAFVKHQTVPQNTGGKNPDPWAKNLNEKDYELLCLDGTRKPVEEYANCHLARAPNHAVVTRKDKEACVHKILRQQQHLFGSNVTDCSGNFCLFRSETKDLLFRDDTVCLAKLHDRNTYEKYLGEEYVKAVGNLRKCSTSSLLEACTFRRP

SMILES: O=c1nc(NO)ccn1[C@@H]1O[C@H](CO)[C@@H](O)[C@H]1O [EIDD-1931, N(4)-hydroxycytidine]
- plasma protein binding (plasma protein): No plasma protein binding was observed

SMILES: NC(=O)c1nc(F)c[nH]c1=O [FAVI, favipiravir]
- pKa ([1]; pKa1 (UV-vis)): 5.08
- displacement of WF from HSA site I (HSA site I): no competition
- pKa ([2]; pKa1 (pHm)): 5.11
- quenching of the fluorescence of AGP ([3]; 91 equiv. of compound): 6%
- quenching of the fluorescence of AGP [3]: did not quench
- protein bound fraction ([4]; 200 μM): 22 ± 2%
- logD at 2 h (physchem [5]): 0.15
- pKa (physchem [6]): 5.17
- bound fraction [7]: less than 2%
- protein bound fraction ([7]; 25 μM): < 2%
- protein bound fraction ([7]; 50 μM): < 2%
- protein bound fraction ([7]; 100 μM): < 2%
- protein bound fraction ([7]; 200 μM): < 2%
- pKa (physchem [8]): 5.1
- protein bound fraction (HSA + AGP): 2 ± 1%
- binding to AGP in FACE [9]: neither of the two proteins are involved in binding of FAVI
- binding attributed to AGP (human serum proteins): 6.5%
- binding attributed to HSA (human serum proteins): 65%
- displacement of DIP from AGP [10]: no interaction between the studied species takes place
- species L− [11, 22]: L^−:100%
- quenching of HSA (Trp-214) fluorescence [12]: did not significantly quench
- quenching of HSA (Trp-214) fluorescence ([12]; listed as Favipiravir): did not quench
- stable in aqueous media at least for [13]: ≥ 30 h
- protein bound fraction ([14]; HSA 50 μM, 50 μM compound, IMA corrected for 85% filter adhesion): < 2%
- protein bound fraction ([14]; HSA 630 μM, 200 μM compound): < 2%
- bound fraction ([14]; different concentrations of HSA): less than 2%
- solubility thermodynamic (physchem [15]): ≥ 10 mM
- binding to HSA in FACE ([16]; up to 5 equiv. albumin, pH 7.4 (PBS), 25 °C): neither of the two proteins are involved in binding of FAVI

SMILES: Cc1ccc(NC(=O)c2ccc(CN3CCN(C)CC3)cc2)cc1Nc1nccc(-c2cccnc2)n1 [IMA, imatinib]
- pKa ([1]; I = 0.1 M (KCl), 25 °C, read-out: pKa1 (UV-vis)): 1.72
- pKa ([2]; I = 0.1 M (KCl), 25 °C, read-out: pKa2 (pHm)): 3.06
- pKa ([2]; I = 0.1 M (KCl), 25 °C, read-out: pKa3 (pHm)): 3.86
- pKa ([2]; I = 0.1 M (KCl), 25 °C, read-out: pKa4 (pHm)): > 7
- ΔlogK′, effect of long-term storage of AGP in plastic microtubes [3]: 0.2
- logK′ (AGP (native); AGP (native), pH 7.4 (ringer), 37 °C, circular dichroism): 6.38
- K′ (AGP (native); pH 7.4): 2.4 × 10^6 1.7 × 10^6
- logK′ (AGP [17]): 6.69
- pKa (physchem [8]): 7.9
- K′ (HSA (fatty acid free)): 1.2 × 10^5 1.0 × 10^5
- species H2L2+ [11, 23]: H2L^2+: 5%
- species H3L3+ [11, 23]: 62%
- species H4L4+ [11, 23]: 33%
- species HL+ [11, 22]: 76%
- species HL+ [11, 24]: 67%
- species L [11, 24]: 33%
- displacement of DG from HSA site II (HSA site II; pH 7.4): unable to displace DG
- stable in aqueous media at least for [13]: ≥ 30 h
- logK′ (AGP (F1-S)): 6.23
- logK′ (AGP [18]): 3.51
- K′ (AGP [19]): 8.7 × 10^2
- logK′ (AGP [19]): 2.94
- binding to HSA in FACE ([16]; pH 7.4): no considerable binding
- pKa4 ([20]; pH-potentiometry, I = 0.15 M NaCl, ref 48 (Szakács et al.)): 7.7

SMILES: CC(C)C(=O)OC[C@H]1O[C@@H](n2ccc(NO)nc2=O)[C@H](O)[C@@H]1O [MOLNU, molnupiravir]
- pKa ([1]; pKa1 (UV-vis)): 2.11
- pKa ([1]; pKa2 (UV-vis)): 10.3
- displacement of WF from HSA site I (HSA site I): no competition
- pKa ([2]; pKa1 (pHm)): 2.14
- pKa ([2]; pKa2 (pHm)): 10.2
- quenching of the fluorescence of AGP [3]: did not quench
- protein bound fraction ([4]; 30 μM): less than 2%
- logD at 2 h (physchem [5]): -0.68 ± 0.02
- hydrolyzed products ([21]; pH 2.0): 8%
- hydrolyzed products ([21]; pH 7.4): 2%
- time within which MOLNU hydrolyzes completely to isobutyrate and EIDD-1931 ([21]; pH 12.0, cMOLNU = 1 mM): ≤ 30 min
- species H2L+ [11, 23]: 58%
- species HL [11, 23]: 42%
- species HL [11, 22]: HL: 100%
- displacement of DG from HSA site II (HSA site II; HSA-DG 1:1, pH 7.4 (PBS), 25 °C): could not displace DG
- quenching of HSA (Trp-214) fluorescence [12]: did not significantly quench
- protein bound fraction ([14]; HSA 630 μM, 30 μM compound): < 2%
- solubility thermodynamic (physchem [15]): ≥ 10 mM
- hydrolysis of MOLNU within two days (human transferrin): The same behavior was observed
- hydrolysis of MOLNU within two days (HSA): Neither of the two media could induce hydrolysis; also recorded: could not hydrolyze the ester bond

SMILES: CC(C)C(=O)O [isobutyric acid]
- pKa ([20]; I = 0.1 M NaNO3): 4.67
